From patent US12441726B2, “Compounds and uses thereof” (Foghorn Therapeutics Inc., priority 2020, dated 2025)

What was measured:
[1] = target: BRM (Homo sapiens, UniProt P51531); assay: ATPase catalytic activity assay (ADP-Glo), BRM; settings: 30 nM BRM, 400 μM ATP; for IC50: BRM ATPase: IC50 (uM)
[2] = target: BRG-1 (Homo sapiens, UniProt P51532); assay: ATPase catalytic activity assay (ADP-Glo), BRG-1; settings: for Emax: 1 h, read-out: BRG1 Max % Inhibition, ADP-Glo, 30 nM BRG-1, 400 μM ATP
Sequence of BRG-1 (P51532 whole entry): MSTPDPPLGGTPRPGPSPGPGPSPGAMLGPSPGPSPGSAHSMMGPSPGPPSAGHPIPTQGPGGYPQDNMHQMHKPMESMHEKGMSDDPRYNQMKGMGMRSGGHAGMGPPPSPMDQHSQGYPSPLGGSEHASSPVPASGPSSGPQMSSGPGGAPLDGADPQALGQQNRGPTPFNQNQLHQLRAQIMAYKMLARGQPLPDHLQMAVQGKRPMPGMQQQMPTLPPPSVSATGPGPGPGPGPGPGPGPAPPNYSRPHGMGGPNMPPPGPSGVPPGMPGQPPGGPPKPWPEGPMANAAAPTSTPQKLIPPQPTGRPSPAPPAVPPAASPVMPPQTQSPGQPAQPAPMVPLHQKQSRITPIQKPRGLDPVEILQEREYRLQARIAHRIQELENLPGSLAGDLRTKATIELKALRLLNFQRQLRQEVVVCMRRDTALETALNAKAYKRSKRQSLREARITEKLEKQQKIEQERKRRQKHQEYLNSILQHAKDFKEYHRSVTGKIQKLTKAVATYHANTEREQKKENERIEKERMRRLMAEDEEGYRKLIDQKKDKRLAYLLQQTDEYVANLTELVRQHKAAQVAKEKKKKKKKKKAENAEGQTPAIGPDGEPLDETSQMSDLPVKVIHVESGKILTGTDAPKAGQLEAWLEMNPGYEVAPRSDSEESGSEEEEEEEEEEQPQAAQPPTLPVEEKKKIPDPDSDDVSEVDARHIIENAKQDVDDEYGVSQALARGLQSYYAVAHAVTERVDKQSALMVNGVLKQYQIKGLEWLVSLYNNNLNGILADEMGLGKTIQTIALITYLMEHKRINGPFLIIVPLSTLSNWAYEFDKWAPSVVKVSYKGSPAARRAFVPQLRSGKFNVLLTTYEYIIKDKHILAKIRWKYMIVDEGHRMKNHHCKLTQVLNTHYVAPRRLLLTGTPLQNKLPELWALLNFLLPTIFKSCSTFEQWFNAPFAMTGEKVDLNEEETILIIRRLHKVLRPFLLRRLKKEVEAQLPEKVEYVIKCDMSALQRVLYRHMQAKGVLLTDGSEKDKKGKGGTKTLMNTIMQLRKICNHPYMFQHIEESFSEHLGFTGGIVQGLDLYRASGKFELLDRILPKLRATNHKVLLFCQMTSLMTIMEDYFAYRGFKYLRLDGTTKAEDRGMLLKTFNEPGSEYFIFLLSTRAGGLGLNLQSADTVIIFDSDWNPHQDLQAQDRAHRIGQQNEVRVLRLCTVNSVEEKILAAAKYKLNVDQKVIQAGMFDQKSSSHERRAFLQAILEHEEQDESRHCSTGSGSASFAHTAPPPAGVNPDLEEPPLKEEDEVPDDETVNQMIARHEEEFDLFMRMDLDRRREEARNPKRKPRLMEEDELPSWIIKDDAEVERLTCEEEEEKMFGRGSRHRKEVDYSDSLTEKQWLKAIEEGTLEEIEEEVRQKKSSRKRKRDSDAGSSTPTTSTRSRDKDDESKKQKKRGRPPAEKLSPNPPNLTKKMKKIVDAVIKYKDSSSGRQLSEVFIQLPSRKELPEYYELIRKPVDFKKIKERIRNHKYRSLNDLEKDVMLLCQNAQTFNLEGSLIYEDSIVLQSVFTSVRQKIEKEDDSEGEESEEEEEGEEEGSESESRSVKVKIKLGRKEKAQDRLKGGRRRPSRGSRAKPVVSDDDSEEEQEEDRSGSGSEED

Sequence of BRM (P51531 whole entry): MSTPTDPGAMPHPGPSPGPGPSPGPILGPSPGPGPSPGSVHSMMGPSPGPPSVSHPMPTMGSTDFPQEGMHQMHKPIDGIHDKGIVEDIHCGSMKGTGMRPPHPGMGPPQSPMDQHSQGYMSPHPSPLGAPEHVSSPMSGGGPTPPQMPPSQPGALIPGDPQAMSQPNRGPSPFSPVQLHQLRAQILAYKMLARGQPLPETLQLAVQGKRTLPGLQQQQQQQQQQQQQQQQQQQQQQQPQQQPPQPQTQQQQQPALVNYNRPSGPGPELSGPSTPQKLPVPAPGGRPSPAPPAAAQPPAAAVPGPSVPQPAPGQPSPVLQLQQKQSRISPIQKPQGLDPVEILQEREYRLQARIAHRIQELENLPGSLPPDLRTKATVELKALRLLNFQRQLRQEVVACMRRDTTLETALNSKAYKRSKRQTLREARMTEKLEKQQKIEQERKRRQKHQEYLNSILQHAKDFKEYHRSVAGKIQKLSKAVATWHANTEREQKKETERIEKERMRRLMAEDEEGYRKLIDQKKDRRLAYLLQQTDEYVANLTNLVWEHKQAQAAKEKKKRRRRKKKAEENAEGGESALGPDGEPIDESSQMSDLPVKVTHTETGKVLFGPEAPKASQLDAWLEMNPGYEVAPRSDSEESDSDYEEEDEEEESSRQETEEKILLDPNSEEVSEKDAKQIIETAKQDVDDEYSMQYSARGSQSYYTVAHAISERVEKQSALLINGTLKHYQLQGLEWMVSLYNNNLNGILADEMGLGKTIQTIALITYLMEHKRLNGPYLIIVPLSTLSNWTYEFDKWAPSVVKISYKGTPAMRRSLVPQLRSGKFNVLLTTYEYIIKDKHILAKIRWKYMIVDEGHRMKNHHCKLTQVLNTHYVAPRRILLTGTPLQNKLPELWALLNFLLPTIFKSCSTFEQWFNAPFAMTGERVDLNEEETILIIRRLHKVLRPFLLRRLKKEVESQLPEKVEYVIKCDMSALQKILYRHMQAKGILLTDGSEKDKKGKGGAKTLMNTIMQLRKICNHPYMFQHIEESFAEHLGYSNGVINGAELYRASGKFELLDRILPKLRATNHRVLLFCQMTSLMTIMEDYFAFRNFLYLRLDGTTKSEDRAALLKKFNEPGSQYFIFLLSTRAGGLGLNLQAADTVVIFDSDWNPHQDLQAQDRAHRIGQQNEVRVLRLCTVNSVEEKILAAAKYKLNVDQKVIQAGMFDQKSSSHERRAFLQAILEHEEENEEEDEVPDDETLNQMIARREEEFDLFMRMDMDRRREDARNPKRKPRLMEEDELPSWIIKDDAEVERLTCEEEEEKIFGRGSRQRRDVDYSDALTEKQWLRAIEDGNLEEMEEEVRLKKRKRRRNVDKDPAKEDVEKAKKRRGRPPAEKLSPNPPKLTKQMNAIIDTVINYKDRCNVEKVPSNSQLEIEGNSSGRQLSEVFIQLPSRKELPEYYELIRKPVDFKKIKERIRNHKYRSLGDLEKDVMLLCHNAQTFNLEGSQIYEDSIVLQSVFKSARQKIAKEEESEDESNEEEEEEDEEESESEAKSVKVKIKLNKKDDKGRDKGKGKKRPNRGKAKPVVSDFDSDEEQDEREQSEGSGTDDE

With C[C@@]1(C#N)COCc2ccc(C(=O)NCc3cc(OCc4cccc(N5CCC5)n4)ccn3)cc21 [Compound 34] the “BRM Max % Inhibition” value [1] was 94%, the IC50 [1] was 0.1 to 0.5 µM and the IC50 [2] was > 1000 nM. For the same molecule, the Emax [2] was 53%.
For C[C@@]1(C#N)COCc2ccc(C(=O)NCc3cc(OCc4ccccn4)ccn3)cc21 [Compound 36], the “BRM Max % Inhibition” value [1] was 64%, the IC50 [1] was > 1 µM and the IC50 [2] was > 1000 nM. The Emax [2] was 44%.
In the case of COC(=O)c1cccc(C#Cc2ccnc(CNC(=O)c3ccc4c(c3)[C@](C)(C#N)CO4)c2)c1 [Compound 37], the “BRM Max % Inhibition” value [1] is reported as 76%, the IC50 [1] is reported as > 1 µM and the IC50 [2] is reported as > 1000 nM. For the same molecule, the Emax [2] was 21%.
With COc1cccc(/C=C/c2ccnc(CNC(=O)c3ccc4c(c3)[C@](C)(C#N)COC4)c2)c1 [Compound 38] the “BRM Max % Inhibition” value [1] was 97%, the IC50 [1] was < 0.1 µM and the IC50 [2] was > 1000 nM. For the same molecule, the Emax [2] was 86%.
With COC(=O)c1cccc(C#Cc2ccnc(CNC(=O)c3ccc4c(c3)[C@](C)(C#N)CCN4)c2)c1 [Compound 39] the “BRM Max % Inhibition” value [1] was 75%, the IC50 [1] was > 1 µM and the IC50 [2] was > 1000 nM. The Emax [2] was 28%.
C[C@@]1(C#N)COCc2ccc(C(=O)NCc3cc(OCc4cccc(N5CCC5)c4)ccn3)cc21 [Compound 40] was tested, and the “BRM Max % Inhibition” value [1] was 96%, the IC50 [1] was 0.1 to 0.5 µM and the IC50 [2] was > 1000 nM. For the same molecule, the Emax [2] was 67%.
For COC[C@H](NC(=O)c1ccc2c(c1)[C@](C)(C#N)COC2)c1cc(/C=C/c2ccccc2)ccn1 [Compound 41], the “BRM Max % Inhibition” value [1] was 85%, the IC50 [1] was 0.5 to 1 µM and the IC50 [2] was > 1000 nM. It also gave an Emax [2] of 55%.
For C[C@@]1(C#N)COCc2ccc(C(=O)NCc3cc(N4CCN(c5ccccc5)CC4)ccn3)cc21 [Compound 42], the “BRM Max % Inhibition” value [1] was 97%, the IC50 [1] was 0.1 to 0.5 µM and the IC50 [2] was 500 to 1000 nM. For the same molecule, the Emax [2] was 84%.
COC[C@H](NC(=O)c1ccc2c(c1)[C@](C)(C#N)COC2)c1cc(C#Cc2ccccc2)ccn1 [Compound 43] was tested, and the “BRM Max % Inhibition” value [1] was 68%, the IC50 [1] was > 1 µM and the IC50 [2] was > 1000 nM. For the same molecule, the Emax [2] was 34%.
In the case of C[C@@]1(C#N)COCc2ccc(C(=O)NCc3cc(N4CCC(c5ccccc5)C4)ccn3)cc21 (stereo partly drawn) [Compound 44], the “BRM Max % Inhibition” value [1] is reported as 97%, the IC50 [1] is reported as 0.1 to 0.5 µM and the IC50 [2] is reported as > 1000 nM. The Emax [2] was 69%.
With C[C@@]1(C#N)COCc2ccc(C(=O)NCc3cc(OCc4cc(F)c5c(c4)CCO5)ccn3)cc21 [Compound 45] the “BRM Max % Inhibition” value [1] was 96%, the IC50 [1] was < 0.1 µM and the IC50 [2] was 500 to 1000 nM. It also gave an Emax [2] of 79%.
With C[C@@]1(C#N)COCc2ccc(C(=O)NCc3cc(N4CC(c5ccccc5)C4)cnn3)cc21 [Compound 46] the “BRM Max % Inhibition” value [1] was 78%, the IC50 [1] was > 1 µM and the IC50 [2] was > 1000 nM. The Emax [2] was 29%.
O=C(NCc1cc(C#Cc2ccccc2)ccn1)c1ccc2c(c1)[C@@](F)(C(F)F)COC2 [Compound 47] was tested, and the “BRM Max % Inhibition” value [1] was 90%, the IC50 [1] was 0.1 to 0.5 µM and the IC50 [2] was > 1000 nM. It also gave an Emax [2] of 47%.
In the case of O=C(NCc1cc(C#Cc2ccccc2)ccn1)c1ccc2c(c1)[C@](F)(C(F)F)COC2 [Compound 48], the “BRM Max % Inhibition” value [1] is reported as 67%, the IC50 [1] is reported as > 1 µM and the IC50 [2] is reported as > 1000 nM. It also gave an Emax [2] of 11%.
C[C@@]1(C#N)COCc2ccc(C(=O)NCc3cc(N4CCc5ccccc5CC4)ccn3)cc21 [Compound 50] was tested, and the “BRM Max % Inhibition” value [1] was 90%, the IC50 [1] was 0.1 to 0.5 µM and the IC50 [2] was > 1000 nM. For the same molecule, the Emax [2] was 53%.
With COc1cc(F)cc2c1CCN(c1ccnc(CNC(=O)c3ccc4c(c3)[C@](C)(C#N)COC4)c1)C2 [Compound 51] the “BRM Max % Inhibition” value [1] was 99%, the IC50 [1] was < 0.1 µM and the IC50 [2] was 100 to 500 nM. For the same molecule, the Emax [2] was 94%.
C[C@@]1(C#N)COCc2ccc(C(=O)NCc3cc(SCc4ccccc4)ccn3)cc21 [Compound 52] was tested, and the “BRM Max % Inhibition” value [1] was 86%, the IC50 [1] was 0.1 to 0.5 µM and the IC50 [2] was > 1000 nM. It also gave an Emax [2] of 34%.
C[C@@]1(C#N)COCc2ccc(C(=O)NCc3cc(N4Cc5ccncc5C4)ccn3)cc21 [Compound 53] was tested, and the “BRM Max % Inhibition” value [1] was 88%, the IC50 [1] was 0.1 to 0.5 µM and the IC50 [2] was > 1000 nM. The Emax [2] was 48%.
